# Source: patent US4831026A, “2-oxa-isocephem compounds, compositions containing same and processes of using” (Otsuka Pharmaceutical Co., Ltd., priority 1985, dated 1989)
# Where two headings read alike, the source gives them in different places.
# Legend:
# M. morganii ATCC-25830 = assay: Antimicrobial activity test: MIC by the agar plate dilution method, M. morganii ATCC-25830; format: cell-based; conditions: inoculum 1×10^6 cells/ml
# Protocol: (§1) In order to investigate the in vitro activity of the under-mentioned compounds against various bacteria, the minimal inhibitory concentration (MIC) values were determined by the agar plate dilution method [see Chemotherapy, 22, 1126-1128 (1974)].
# (§2) Each test inoculum was adjusted to 1×10^6 cells/ml (O.D., 600 mμ: 0.07-0.16).
# P. mirabilis 1287 = assay: Antimicrobial activity test: MIC by the agar plate dilution method, P. mirabilis 1287; format: cell-based
# Protocol: as §1, §2
# K. pneumoniae NCTC-9632 = assay: Antimicrobial activity test: MIC by the agar plate dilution method, K. pneumoniae NCTC-9632; format: cell-based; conditions: inoculum 1×10^6 cells/ml
# Protocol: as §1, §2
# S. aureus FDA-209-p = assay: Antimicrobial activity test: MIC by the agar plate dilution method, S. aureus FDA-209-p; format: cell-based, Staphylococcus aureus; conditions: inoculum 1×10^6 cells/ml
# Protocol: as §1, §2
# E. coli NIHJ = assay: Antimicrobial activity test: MIC by the agar plate dilution method, E. coli NIHJ; format: cell-based; conditions: inoculum 1×10^6 cells/ml
# Protocol: as §1, §2
# S. marcescens IFO-12648 = assay: Antimicrobial activity test: MIC by the agar plate dilution method, S. marcescens IFO-12648; format: cell-based
# Protocol: as §1, §2
# E. coli No. 29 = assay: Antimicrobial activity test: MIC by the agar plate dilution method, E. coli No. 29; format: cell-based
# Protocol: as §1, §2
# P. aeruginosa NCTC-10490 = assay: Antimicrobial activity test: MIC by the agar plate dilution method, P. aeruginosa NCTC-10490; format: cell-based; conditions: inoculum 1×10^6 cells/ml
# Protocol: as §1, §2
# [1] = P. mirabilis 1287, inoculum 1×10^6 cells/ml
# [2] = S. marcescens IFO-12648, inoculum 1×10^6 cells/ml
# [3] = E. coli No. 29, inoculum 1×10^6 cells/ml
Substance,MIC (M. morganii ATCC-25830) [µg/mL],MIC (P. mirabilis 1287; [1]) [µg/mL],MIC (K. pneumoniae NCTC-9632) [µg/mL],MIC (S. aureus FDA-209-p) [µg/mL],MIC (E. coli NIHJ) [µg/mL],MIC (S. marcescens IFO-12648) [µg/mL],MIC (E. coli No. 29) [µg/mL],MIC (P. aeruginosa NCTC-10490) [µg/mL],MIC (S. marcescens IFO-12648; [2]) [µg/mL],MIC (E. coli No. 29; [3]) [µg/mL],MIC (P. mirabilis 1287) [µg/mL]
"7-[2-(2-Aminothiazol-4-yl)-2-methoxyiminoacetamido]-3-[(1,3,4-thiadiazol-2-yl)thiomethyl]- Δ^33 -O-2-isocephem-4-carboxylic acid (syn-isomer) [No. 2]",0.2,0.1,0.78,1.56,0.39,0.78,0.78,3.13,,,
"7-[2-(2-Aminothiazol-4-yl)-2-cyanomethyloxyiminoacetamido]-3-[(1,3,4-thiadiazol-2-yl)thiomethyl]-Δ^3 -O-2-isocephem-4-carboxylic acid trifluoroacetate (syn-isomer) [No. 11]",0.1,0.05,0.39,0.78,0.39,,,1.56,1.56,0.2,
"(6S,7S)-7-[2-(2-Aminothiazol-4-yl}-2methoxyiminoacetamido]-3-[(1,3,4-thiadiazol-2-yl)thiomethyl]-Δ^3 -O-2-isocephem-4-carboxylic acid trifluoroacetate (syn-isomer) [No. 15]",≤ 0.025,≤ 0.025,≤ 0.025,,≤ 0.025,,,1.56,0.2,≤ 0.025,
"7-[2-(2-Aminothiazol-4-yl)-2-benzyloxyiminoacetamido]-3-[(1,3,4-thiadiazol-2-yl)thiomethyl]-Δ^3 -O-2-isocephem-4-carboxylic acid trifluoroacetate (syn-isomer) [No. 13]",≤ 0.025,≤ 0.025,≤ 0.025,0.1,≤ 0.025,,,1.56,0.1,≤ 0.025,
"7-[2-(2-Aminothiazol-4-yl)-2-methoxyiminoacetamido]-3-[(1,2,3-thiadiazol-5-yl)thiomethyl]-Δ^3 -O-2-isocephem-4-carboxylic acid trifluoroacetate (syn-isomer) [No. 14]",≤ 0.025,≤ 0.025,≤ 0.025,0.1,≤ 0.025,,,1.56,0.1,≤ 0.025,
"Benzhydryl 7-[2-(2-formamidothiazol-4-yl)-2-ethoxyiminoacetamido]-3-[(1,3,4-thiadiazol-2-yl)thiomethyl]-Δ^3 -O-2-isocephem-4-carboxylate (syn-isomer) [Example 30]",0.39,0.2,0.2,0.1,0.05,0.39,,25,,0.1,
7-[2-(2-Trifluoroacetamidothiazol-4-yl)-2methoxyiminoacetamido]-3-[(carbamoyloxy)methyl]-Δ^3 -O-2-isocephem-4-carboxylic acid (syn-isomer) [No. 5],0.2,,0.2,> 100,0.78,0.39,0.78,100,,,0.39
"7-[2-(2-Aminothiazol-4-yl)-2-allyloxyiminoacetamido]-3-[(1,3,4-thiadiazol- 2-yl)thiomethyl]- Δ^3 -O-2-isocephem-4-carboxylic acid (syn-isomer) [No. 3]",≤ 0.025,≤ 0.025,0.1,0.78,≤ 0.025,,,12.5,0.2,≤ 0.025,
"7-[2-(2-Chloroacetamidothiazol-4-yl)-2-ethoxyiminoacetamido]-3-[(1,3,4-thiadiazol-2-yl)thiomethyl-]-Δ^3 -O-2-isocephem-4-carboxylic acid (syn-isomer) [Example 28]",≤ 0.025,≤ 0.025,0.05,0.78,≤ 0.025,,,1.56,0.2,≤ 0.025,
"7-[2-(2-Aminothiazol-4-yl)-2-methylthiomethoxyiminoacetamido]-3-[(1,3,4-thiadiazol-2-yl)thiomethyl]-Δ^3 -O-2-isocephem-4-carboxylic acid (syn-isomer) [No. 12]",≤ 0.025,≤ 0.025,0.05,0.2,≤ 0.025,,,3.13,0.1,≤ 0.025,
"7-[2-(2-Formamidothiazol-4-yl)-2-methylthiomethoxyiminoacetamido]-3-[(1,3,4-thiadiazol-2-yl)thiomethyl]-Δ^3 -O-2-isocephem-4-carboxylic acid (syn-isomer) [Example 45]",0.39,0.2,0.39,0.39,0.39,0.78,0.39,6.25,,,
"Benzhydryl 7-[2-(2-aminothiazol-4-yl)-2-cyclopropylmethyloxyiminoacetamido]-3-[(1,2,3-thiadiazol-5-yl)thiomethyl]-Δ^3 -O-2-isocephem-4-carboxylate (syn-isomer) [Example 56]",0.05,0.2,0.39,0.05,0.2,0.78,,0.39,,0.1,
"7-[2-(2-Aminothiazol-4-yl)-2-cyclopropvlmethyloxyiminoacetamido]-3-[(1,2,3- thiadiazol-5-yl)thiomethyl]-Δ^3 -O-2-isocephem-4-carboxylic acid (syn-isomer) [Example 57]",0.05,0.1,0.39,0.1,0.2,0.78,,0.78,,0.1,
"(6S,7S)-7-[2-(2-Aminothiazol-4-yl)-2cyanomethoxyiminoacetamido]-3-[(1,3,4- thiadiazol-2-yl)thiomethyl]-Δ^3 -O-2-isocephem-4carboxylic acid trifluoroacetate (syn-isomer) [No. 16]",0.05,0.1,0.39,0.39,0.39,0.78,,0.39,,0.2,
"7-[2-(2-Aminothiazol-4-yl)-2-propargyloxyiminoacetamido]3-[(1,3,4-thiadiazol-2-yl)thiomethyl-66^3 -O-b 2-isocephem-4-carboxylic acid trifluoroacetate (syn-isomer) [No. 7]",0.05,≤ 0.025,0.1,,≤ 0.025,,,0.78,0.2,0.1,
"Benzhydryl 7-[2-(2-formamidothiazol-4-yl)-2-methylthiomethoxyiminoacetamido]-3-[(1,3,4-thiadiazol-2-yl)thiomethyl]-Δ^3 -O-2-isocephem-4-carboxylate (syn-isomer) [Example 44]",0.78,,0.39,0.39,,1.56,0.2,3.13,,,0.2
"7-[2-(2-Chloroacetamidothiazol-4-yl)-2-cyclopentyloxyiminoacetamido]-3-[(1,3,4-thiadiazol-2-yl)thiomethyl]-Δ^3 -O-2-isocephem-4-carboxylic acid (syn-isomer) [Example 26]",0.05,≤ 0.025,0.2,0.2,,0.39,,0.39,,0.05,
"7-[2-(2-Formamidothiazol-4-yl)-2-(2-chloroethoxy)iminoacetamido]-3-[(1,3,4- thiadiazol-2-yl)thiomethyl-]-Δ^3 -O-2-isocephem-4-carboxylic acid (syn-isomer) [Example 33]",0.2,0.05,0.1,,0.1,0.78,,1.56,,0.2,
